Source: patent publication US20060052435A1, “Selective dopamin d3 receptor agonists for the treatment of sexual dysfunction” (priority 2001, published 2006)

Test system: New Zealand rabbits
Test: male and female anaesthetised rabbit, pelvic nerve stimulation
Type: in vivo
Experimental: 1.1.1 Male and Female Anaesthetised Rabbit Methodology
Male and female New Zealand rabbits (˜2.5 kg) were pre-medicated with a combination of Medetomidine (Domitor®) 0.5 ml/kg i.m., and Ketamine (Vetalar®) 0.25 ml/kg i.m. whilst maintaining oxygen intake via a face mask. The rabbits were tracheotomised using a Portex™ uncuffed endotracheal tube 3 ID., connected to ventilator and maintained at a ventilation rate of 30-40 breaths per minute, with an approximate tidal volume of 18-20 ml, and a maximum airway pressure of 10 cm H2O. Anaesthesia was then switched to Isoflurane and ventilation continued with O2 at 2 l/min. The right marginal ear vein was cannulated using a 23 G or 24 G catheter, and Lactated Ringer solution perfused at 0.5 ml/min. The rabbit was maintained at 3% Isoflurane during invasive surgery, dropping to 2% for maintenance anaesthesia. The left jugular vein was exposed, isolated and then cannulated with a PVC catheter (17 G) for the infusion of drugs and compounds.
The left groin area of the rabbit was shaved and a vertical incision was made approximately 5 cm in length along the thigh. The femoral vein and artery were exposed, isolated and then cannulated with a PVC catheter (17 G) for the infusion of drugs and compounds. Cannulation was repeated for the femoral artery, inserting the catheter to a depth of 10 cm to ensure that the catheter reached the abdominal aorta. This arterial catheter was linked to a Gould system to record blood pressure. Samples for blood gas analysis were also taken via the arterial catheter. Systolic and diastolic pressures were measured, and the mean arterial pressure calculated using the formula (diastolic×2+systolic)÷3. Heart rate was measured via the pulse oxymeter and Po-ne-mah data acquisition software system (Ponemah Physiology Platform, Gould Instrument Systems, Inc.).
A ventral midline incision was made into the abdominal cavity. The incision was about 5 cm in length just above the pubis. The fat and muscle was bluntly dissected away to reveal the hypogastric nerve which runs down the body cavity. It was essential to keep close to the side curve of the pubis wall in order to avoid damaging the femoral vein and artery which lie above the pubis. The sciatic and pelvic nerves lie deeper and were located after further dissection on the dorsal side of the rabbit. Once the sciatic nerve is identified, the pelvic nerve was easily located. The term pelvic nerve is loosely applied; anatomy books on the subject fail to identify the nerves in sufficient detail. However, stimulation of the nerve causes an increase in vaginal and clitoral blood flow in females and in intracavernosal pressure and cavernosal blood flow in males, and innervation of the pelvic region. […]

CCCN1CCO[C@H](c2cccc(O)c2)C1.Cl [Example 8, R-(−)-3-(4-Propylmorpholin-2-yl)phenol hydrochloride]
penile intracavernosal pressure and cavernosal blood flow in male rabbits: beneficially enhanced
vaginal and clitoral blood flow in female rabbits: beneficially enhanced
